A short description of series [1]: decomposition temperature by differential thermal balance (TG-DTA). It counts as physicochemical. As to conditions: temperature increase rate 10° C./min, normal atmospheric pressure. As to the method:
The decomposition temperature of the obtained organometallic complex of the present invention, [Ir(tppr)2(dpm)], was measured with a high vacuum differential type differential thermal balance (TG-DTA2410SA, manufactured by Bruker AXS K.K.). The temperature increase rate was 10° C./min, and the temperature was increased under normal atmospheric pressure.

The nature of series [2]: solubility test in various solvents. It counts as physicochemical. As to conditions: for solubility in dimethylformamide (DMF) / solubility x, Solvents not having aromatic ring DMF: solvent DMF; for solubility in chloroform / solubility x, Solvents not having aromatic ring chloroform: solvent chloroform; for solubility in dioxane / solubility x, Ethers dioxane: solvent dioxane; for solubility in toluene / solubility x, sovents having aromatic ring toluene: solvent toluene. As to the method: In this Example, the solubility of an organometallic complex including a pyrazine skeleton described in Embodiment Mode 1 was measured. The measurement was performed by examining the solubility in various solvents: 2-ethoxyethanol, isopropanol, and ethanol, which are alcohols; dioxane, which is ether; chloroform and dimethylformamide (DMF), which are an organic solvent not including an aromatic ring; and toluene, which is an aromatic hydrocarbon-based solvent.
Among the complexes disclosed in Embodiment Mode 1, [Ir(tppr)2(dpm)] represented by the structural formula (147), which was synthesized in Example 1, is selected as a measurement object. The solubility was investigated. […]

Here are results for two substances from patent publication US9012036B2, “Organometallic complex, composition and light emitting element including the organometallic complex” (Semiconductor Energy Laboratory Co., Ltd., priority 2007, dated 2015).

Consider “bis(2,3,5-triphenylpyrazinato)(dipivaloylmethanato)iridium(III) [Ir(tppr)2(dpm)]”, for which the “decomposition temperature (reduction in weight by 5%)” value in series [1] was found to be 327 °C. The “solubility x, Alcohols 2-ethoxyethanol” value in series [2] (solvent 2-ethoxyethanol) is reported as “⊚ (x ≧ 1.2)”. In series [2], the “solubility in dimethylformamide (DMF)” value is at least 1.2 mg/mL; the “solubility x, Solvents not having aromatic ring DMF” value is “⊚ (x ≧ 1.2)”; the solubility in chloroform is at least 1.2 mg/mL; the “solubility x, Solvents not having aromatic ring chloroform” value is “⊚ (x ≧ 1.2)”. Besides, in series [2], the solubility in dioxane was at least 1.2 mg/mL; the “solubility x, Ethers dioxane” value is given as “⊚ (x ≧ 1.2)”; the solubility in toluene is at least 0.6 mg/mL; the “solubility x, sovents having aromatic ring toluene” value is listed as “Δ (0.9 > x ≧ 0.6)”. Besides, in series [2] (solvent ethanol), the solubility in ethanol is at least 0.6 mg/mL and the “solubility x, Alcohols ethanol” value was “Δ (0.9 > x ≧ 0.6)”. Besides, in series [2] (solvent isopropanol), the solubility in isopropanol was at least 0.6 mg/mL and the “solubility x, Alcohols isopropanol” value is on record as “Δ (0.9 > x ≧ 0.6)”.
“bis(2,3,5-triphenylpyrazinato)(pivaloyltrifluoroacetonato)iridium(III) [Ir(tppr)2(pFac)]”: in series [2], the “solubility in dimethylformamide (DMF)” value is at least 1.2 mg/mL; the “solubility x, Solvents not having aromatic ring DMF” value is on record as “⊚ (x ≧ 1.2)”; the solubility in chloroform is at least 1.2 mg/mL; the “solubility x, Solvents not having aromatic ring chloroform” value is “⊚ (x ≧ 1.2)”. Moreover, in series [2], the solubility in dioxane was at least 1.2 mg/mL; the “solubility x, Ethers dioxane” value is given as “⊚ (x ≧ 1.2)”; the solubility in toluene is at least 1.2 mg/mL; the “solubility x, sovents having aromatic ring toluene” value is recorded as “⊚ (x ≧ 1.2)”.
